Measured values taken from patent US20120095036A1, “NOVEL SUBSTITUTED INDAZOLE AND AZA-INDAZOLE DERIVATIVES AS GAMMA SECRETASE MODULATORS” (priority 2009, published 2012).

How the values were obtained:
Aβ42 [1] = assay: Method 1: Aβ42 sandwich ELISA on media of SKNBE2 cells carrying APP 695 wild type (γ-secretase-modulating activity); format: cell-based; details: Homo sapiens, SKNBE2 cells APP 695 wild type, 18 hours
Method in brief: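 SKNBE2 cells expressing wild-type APP695 exposed to compounds for 18 h in Ultraculture with 1% glutamine. Secreted Aβ42 in media quantified by sandwich ELISA (C-terminal capture, biotinylated 3D6 detection, TMB, 450 nm). IC50 from 4-parameter fit, top/bottom fixed 100/0, Hill slope fixed 1; toxicity checked by WST-1.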

Aβ42 [2] = assay: Method 2: Aβ42 Alphalisa on supernatant of SKNBE2 cells carrying APP 695 wild type; format: cell-based; details: Homo sapiens, SKNBE2 cells APP 695 wild type, overnight
Method in brief: (§1)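 SKNBE2 cells expressing wild-type APP695 (10^4/well) were incubated overnight at 37 °C with compound at several concentrations. Secreted Aβ42 (C-terminal/N-terminal antibody pair) and Aβtotal (N-terminal/4G8 pair) were measured by AlphaLISA in the supernatant. IC50 values came from 4-parameter fits of percent of untreated control.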

Aβtotal = assay: Method 2: Aβtotal Alphalisa on supernatant of SKNBE2 cells carrying APP 695 wild type; format: cell-based; details: Homo sapiens, SKNBE2 cells APP 695 wild type, overnight
Method in brief: as §1

SMILES | IC50 (Aβ42 [1]) [nM] | IC50 (Aβ42 [2]) [nM] | IC50 (Aβtotal) [µM] | melting point [°C]
COc1cccc(-n2cc3cccc(Nc4ccc(-n5cnc(C)c5)c(OC)c4)c3n2)c1 [Compound 1, N-[3-methoxy-4-(4-methyl-1H-imidazol-1-yl)phenyl]-2-(3-methoxyphenyl)-2H-indazol-7-amine] | 46 | 81 | 8.32 | –
COc1cccc(-n2nc3c(Nc4ccc(-n5cnc(C)c5)c(OC)c4)cccc3c2C)c1 [Compound 2, N-[3-methoxy-4-(4-methyl-1H-imidazol-1-yl)phenyl]-2-(3-methoxyphenyl)-3-methyl-2H-indazol-7-amine] | 7 | 7 | 6.46 | 184.4
COc1cc(Nc2cccc3cn(CC(F)(F)F)nc23)ccc1-c1cnc(C)o1 [Compound 6, N-[3-methoxy-4-(2-methyl-5-oxazolyl)phenyl]-2-(2,2,2-trifluoroethyl)-2H-indazol-7-amine] | 152 | 162 | 3.98 | –
COc1cc(Nc2cccc3cn(Cc4ccc(F)cc4)nc23)ccc1-n1cnc(C)c1 [Compound 15, 2-[(4-fluorophenyl)methyl]-N-[3-methoxy-4-(4-methyl-1H-imidazol-1-yl)phenyl]-2H-indazol-7-amine] | 75 | 14 | 6.61 | –
COc1cccc(-n2nc3c(Nc4ccc(-c5cnc(C)o5)cc4)cccc3c2C)c1 [Compound 29, 2-(3-methoxyphenyl)-3-methyl-N-[4-(2-methyl-5-oxazolyl)phenyl]-2H-indazol-7-amine] | 28 | 15 | > 10 | 152.2
COc1cc(Nc2cccc3cn(CC4CC4)nc23)ccc1-c1cnc(C)o1.Cl [Compound 38, 2-(cyclopropylmethyl)-N-[3-methoxy-4-(2-methyl-5-oxazolyl)phenyl]-2H-indazol-7-amine HCl] | 518 | 234 | 4.68 | –
COc1cccc(-n2nc3c(Nc4ccc(-c5cnc(C)o5)c(OC)c4)nccc3c2C)c1 [Compound 42, N-[3-methoxy-4-(2-methyl-5-oxazolyl)phenyl]-2-(3-methoxyphenyl)-3-methyl-2H-pyrazolo[3,4-c]pyridin-7-amine] | 91 | 120 | 4.37 | 194.4
